Assay results as given in ChEMBL document CHEMBL1129100, “Non-peptide glycoprotein IIb/IIIa inhibitors. 9. Centrally constrained alpha-sulfonamides are useful tools for exploring platelet receptor function” (Bioorg Med Chem Lett, 1996).

Molecular target: Integrin alpha-IIb/beta-3 (Homo sapiens) (UniProt P05106+P08514)
Test: Affinity for purified alpha IIb beta-3 integrin
Type: protein-complex assay

Compound	ED50 [nM]
O=C(O)C1=C/C(=N\C(S)=N\CCS(=O)(=O)N[C@@H](CNC(=O)c2ccc3c(c2)C(=O)N(CCC2CCNCC2)C3)C(=O)O)C=CC1=C1c2ccc(O)cc2Oc2cc(O)ccc21	1.9
CCCCS(=O)(=O)N[C@@H](Cc1ccc(OCCCCC2CCNCC2)cc1)C(=O)O [TIROFIBAN]	0.9
CN(C)c1cccc2c(S(=O)(=O)N[C@@H](CNC(=O)c3ccc4c(c3)C(=O)N(CCC3CCNCC3)C4)C(=O)O)cccc12	2.1
O=C(O)CCNC(=O)c1ccc2c(c1)C(=O)N(CCC1CCNCC1)C2	12

Species: Homo sapiens
Test: Inhibition of human gel filtered platelet aggregation stimulated by ADP ([…])
Type: functional, organism-based

Compound	IC50 [nM]
O=C(O)C1=C/C(=N\C(S)=N\CCS(=O)(=O)N[C@@H](CNC(=O)c2ccc3c(c2)C(=O)N(CCC2CCNCC2)C3)C(=O)O)C=CC1=C1c2ccc(O)cc2Oc2cc(O)ccc21	31
CCCCS(=O)(=O)N[C@@H](Cc1ccc(OCCCCC2CCNCC2)cc1)C(=O)O [TIROFIBAN]	18
CN(C)c1cccc2c(S(=O)(=O)N[C@@H](CNC(=O)c3ccc4c(c3)C(=O)N(CCC3CCNCC3)C4)C(=O)O)cccc12	12
O=C(O)CCNC(=O)c1ccc2c(c1)C(=O)N(CCC1CCNCC1)C2	27
